According to paper PMC8773213, “In Vitro Anticancer Activity and Mechanism of Action of an Aziridinyl Galactopyranoside” (Biomedicines, 2021):
One block for each molecule: values may come before it.

Columns and labels:
AA8 cells = assay: Comet assay (DNA damage); type: cell-based, Chinese hamster; conditions: 1 mM, 4 h
Description: The single cell gel electrophoresis assay, also known as comet assay, is a widely used technique for the study of levels of damage in cellular DNA. In this assay, individual cells embedded in agarose are lysed, electrophoresed, stained with a fluorescent dye and examined under an epifluorescence microscope. […] The quantity of DNA present in the tail is indicative of DNA damage. This assay has been described in detail by Singh et al.. We followed this protocol with minor modifications previously described. Briefly, standard slides were immersed in 1% normal melting agarose at 55 °C, left to allow the agarose to solidify and kept at 4 °C until use. Cells were seeded in 6-well plates, allowed to grow for 24 h and then cells were exposed to AzGalp or CTP (positive control) for 4 h. At the end of the treatment, cells were harvested by trypsinization, washed with PBS and resuspended in PBS at a concentration of approximately 1 million cells/mL; 10 µL cell suspension was mixed with 85 μL of low-melting agarose (LMA) at 37 °C and the mixture was quickly added to the slides with the first layer of agarose, spread using a coverslip and kept at 4 °C for 8 min to allow the LMA to solidify. The coverslips were then removed and another layer of 100 μL of LMA at 37 °C was added, covered with a coverslip and allowed to solidify at 4 °C for 8 min. After removing the coverslips, the slides were incubated in the dark for 1 h at 4 °C in a lysis buffer (pH 10.0) containing 0.25 M NaOH, 10% DMSO, 1% Triton X-100, 10 mM Tris-HCl, 100 mM Na2-EDTA and 2.5 M NaCl. Next, alkaline denaturation with electrophoretic buffer (300 mM NaOH and 1 mM Na2-EDTA) was carried out in an electrophoresis chamber for 20 min and then electrophoresis was performed at 1 V/cm for 20 min. […] DNA damage levels were quantified for each cell and expressed as percent of DNA in the tail and as the tail moment (defined as the product of the tail length and the fraction of total DNA in the tail). The results were averaged from two independent experiments and expressed as mean ± SEM.

A549 cells [1] = assay: Glycolysis inhibition (glucose consumed, lactate produced); type: cell-based, human; conditions: A549, 8 h
Description: Inhibition of glycolysis was determined by measuring glucose consumed (initial product of glycolysis) and lactate produced (final product of glycolysis) in untreated and treated cells. Cells were seeded in 6-well plates at a density of 10^6 cells/well and were allowed to attach for a few hours before treatment with the tested compounds for 8 h. After treatment, medium was recollected and glucose and lactate concentrations were determined using the Accutrend® Plus analyzer together with Accutrend glucose strips and BM-Lactate strips (Roche Diagnostics, Barcelona, Spain). After calibrating the instrument with glucose and lactate calibration strips, test strips were used to determine glucose and lactate levels through colorimetric oxidase mediator reactions according to the manufacturer’s instructions. The results are expressed as percentage of glucose consumption and percentage of lactate production in relation to untreated cells. Data were averaged from two independent experiments and shown as mean ± SEM.

A549 cells [2] = type: cell-based; conditions: A549, 48 h, antioxidant added 1 h before; MTT
Description: (§1) Exponentially growing cells were seeded in 96-well plates and allowed to attach and grow for 24 h. The cells were then treated with increasing concentrations of the tested drugs. At the end of the treatment period, cell viability was measured with the MTT assay or the resazurin assay, two widely used techniques.
In the case of the MTT assay, this technique detects viable cells using the ability of these cells to reduce the yellow tetrazolium MTT to an insoluble colored formazan product. Subsequently, this product was solubilized and analyzed by spectrophotometry. Dead cells cannot reduce the MTT into the colored formazan product. Briefly, 24 h after plating, cells were treated with the tested compounds for 48 h; except in experiments with DNA repair-proficient and -deficient cell lines, in which cells were only exposed for 24 h to drugs and allowed to grow for an additional 48 h in drug-free medium to allow them to repair possible DNA damage induced by the tested drugs. After the treatment period, the medium was removed, the cells were washed once with PBS and 125 μL MTT (1 mg/mL in medium) was added to each well. Plates were incubated for 2–4 h and then 80 μL 20% SDS in 0.02 M HCl was added to each well. Finally, plates were incubated overnight at 37 °C and optical densities were measured at 540 nm using an absorbance spectrophotometer microplate reader.
(§2) In both assays, cell viability was expressed as percentage compared to untreated cells. Results were expressed as the means ± standard error of the mean (SEM). All data are from at least three independent experiments.

UV4 and AA8 cells = assay: Clonogenic survival assay; type: cell-based, Chinese hamster; conditions: 3 µM, 24 h, then colonies in drug-free medium
Description: Cell survival after treatment was determined by clonogenic assay. AA8 and UV4 cells were seeded in 6 cm Petri dishes 4 h prior to treatment for 24 h. After that, drugs were removed and cells were allowed to form colonies for eight days. The colonies were then stained with 0.4% methylene blue in methanol for 15 min. Surviving colonies made up of more than 50 cells per colony were counted. Results were represented as percentage of survival referred to untreated cells.

[3] = test system: U2OS (Human osteosarcoma cells); assay: Resazurin cell viability assay, U2OS; type: cell-based; conditions: 72 h, read-out: IC50 (Mean ± SEM, µM), U2OS
Description: as §1
(§3) The resazurin assay is a redox-based colorimetric/fluorometric technique based on the ability of viable cells to reduce the blue compound resazurin into the pink, fluorescent and soluble product resorufin. The amount of resorufin produced is generally proportional to the number of living cells. In this assay, 24 h after seeding, cells were exposed to the tested drugs for 72 h. Then 100 μL resazurin in medium was added to each well (final concentration of 10 μg/mL) and, one hour later the fluorescence intensity was measured at 530/590 nm (excitation/emission) using a fluorescence microplate reader.
as §2

[4] = test system: SW480 (Human colon adenocarcinoma cells); assay: Resazurin cell viability assay, SW480; type: cell-based; conditions: 72 h, read-out: IC50 (Mean ± SEM, µM), SW480
Description: as §1, §3, §2

[5] = test system: cancer cell lines versus MRC-5 and VH10 normal cell lines; assay: Resazurin assay, panel of cancer cells versus normal cells; type: cell-based, human; conditions: 72 h
Description: as §1, §3, §2
Next, we evaluated the cytotoxic activity of AzGalp in cancer cell lines derived from solid tumors (HeLa, PC3, U2OS, HepG2 and SW480) and from hematological malignancies (NB4 and HL-60). To study the selectivity against cancer cells, MRC-5 and VH10 cells were used as normal cell lines; 5-FU was used as a positive control. All cells were treated with AzGalp or 5-FU for 72 h and cell viability was evaluated with the resazurin assay. This assay was used to determine cell viability instead of the MTT assay because the HL60 and NB4 cell lines grow in suspension. […] Leukemia cell lines were approximately 15 times more sensitive than normal cells to the cytotoxicity of our aziridine.

[6] = test system: HeLa (Human cervical carcinoma cells); assay: Resazurin cell viability assay, HeLa; type: cell-based; conditions: 72 h, read-out: IC50 (Mean ± SEM, µM), HeLa
Description: as §1, §3, §2

[7] = test system: BJ-SV40T (SV40T-transformed BJ-hTERT cells); assay: Resazurin cell viability assay, BJ-SV40T; type: cell-based; conditions: Homo sapiens, 72 h, read-out: IC50 (Mean ± SEM, µM), BJ-SV40T
Description: as §1, §3, §2

[8] = test system: BJ-RASV12 (HRASV12-transformed BJ-SV40T cells); assay: Resazurin cell viability assay, BJ-RASV12; type: cell-based, human; conditions: 72 h
Description: as §1, §3, §2

[9] = test system: MRC-5 (Human lung non-malignant cells); assay: Resazurin cell viability assay, MRC-5; type: cell-based; conditions: MRC5, 72 h, read-out: IC50 (Mean ± SEM, µM), MRC-5
Description: as §1, §3, §2

[10] = test system: NB4 (Human acute promyelocytic leukemia cells); assay: Resazurin cell viability assay, NB4; type: cell-based; conditions: 72 h, read-out: IC50 (Mean ± SEM, µM), NB4
Description: as §1, §3, §2

[11] = test system: HepG2 (Human hepatocellular carcinoma cells); assay: Resazurin cell viability assay, HepG2; type: cell-based; conditions: 72 h, read-out: IC50 (Mean ± SEM, µM), HepG2
Description: as §1, §3, §2

[12] = test system: PC3 (Human prostate cancer cells); assay: Resazurin cell viability assay, PC3; type: cell-based; conditions: 72 h, read-out: IC50 (Mean ± SEM, µM), PC3
Description: as §1, §3, §2

[13] = test system: VH10 (Human skin non-malignant cells); assay: Resazurin cell viability assay, VH10; type: cell-based; conditions: 72 h, read-out: IC50 (Mean ± SEM, µM), VH10
Description: as §1, §3, §2

[14] = test system: BJ-hTERT (hTERT-immortalized skin non-malignant BJ cells); assay: Resazurin cell viability assay, BJ-hTERT; type: cell-based; conditions: Homo sapiens, 72 h, read-out: IC50 (Mean ± SEM, µM), BJ-hTERT
Description: as §1, §3, §2

[15] = test system: HL-60 (Human acute promyelocytic leukemia cells); assay: Resazurin cell viability assay, HL-60; type: cell-based; conditions: 72 h, read-out: IC50 (Mean ± SEM, µM), HL-60
Description: as §1, §3, §2

SMILES: COc1cc(C(=O)O)cc(OC)c1O [Syringic acid, reference compound]
DNA damage in comet assay (AA8 cells): does not induce DNA damage

SMILES: O=C(O)C(Cl)Cl [DCA, dichloroacetate, reference compound]
Glycolytic activity (glucose consumption and lactate production) (A549 cells [1]): reduced lactate production and glucose consumption

SMILES: OO [H2O2, hydrogen peroxide, reference compound]
Effect of MnTMPyP on cytotoxicity (A549 cells [2]): decreased in the presence of the three antioxidants
Effect of NAC on cytotoxicity (A549 cells [2]): decreased in the presence of the three antioxidants
Effect of catalase on cytotoxicity (A549 cells [2]): decreased in the presence of the three antioxidants

SMILES: COc1cc([C@@H]2c3cc4c(cc3[C@@H](O[C@@H]3O[C@@H]5CO[C@@H](C)O[C@H]5[C@H](O)[C@H]3O)[C@H]3COC(=O)[C@H]23)OCO4)cc(OC)c1O [etoposide, reference compound]
Cell survival, UV4 versus AA8 (clonogenic assay) (UV4 and AA8 cells): UV4 cells were more sensitive

IC50 [3]: 6.4 ± 0.7 µM
IC50 [4]: 2.9 ± 1.3 µM
IC50 [6]: 66.3 ± 27 µM
IC50 [10]: 2.5 ± 0.3 µM
IC50 [11]: 0.6 ± 0.3 µM
IC50 [12]: 1.5 ± 0.3 µM
IC50 [15]: 0.9 ± 0.8 µM
SMILES: O=c1[nH]cc(F)c(=O)[nH]1 [5-FU, 5-fluorouracil, reference compound]
Viability of leukemia cells ([5]; HL60 and NB4, concentrations between 10 and 100 µM): higher than 20%
Viability of normal cells ([5]; MRC-5 and VH10, concentrations between 10 and 100 µM): showed cytotoxicity against these cells
IC50 [7]: 5.4 ± 0.7 µM
Sensitivity of BJ-RASV12 malignant cells relative to BJ-hTERT non-malignant cells ([8]; resazurin): did not observe this selectivity
IC50 ([8]; Homo sapiens, resazurin assay, read-out: IC50 (Mean ± SEM, µM), BJ-RASV12): 3 ± 1.4 µM
IC50 [9]: > 1000 µM
IC50 [13]: > 1000 µM
IC50 [14]: 2.4 ± 0.5 µM
